According to patent US20260199369A1, “COMPOUNDS FOR THE TREATMENT OF NEUROMUSCULAR DISORDERS” (NMD PHARMA A/S, priority 2022, published 2026):
pEC50: −log10 of the molar value. Where two headings read alike, the source gives them in different places.

Experiments:
CIC-1 ion channel = molecular target: T1, CIC-1 ion channel (Rattus norvegicus, UniProt P35524); test: Electrophysiological measurement of compound inhibition of CIC-1 in rat muscle (Gm, three micro-electrodes technique); assay type: cell-based; settings: Gm in fibres of whole rat soleus muscle, four increasing compound concentrations; read-out: Potency Range (EC50, inhibition of CIC-1 ion channel)
T1 construct: from tissue; host or cells: whole soleus muscle of 12-14 week old Wistar rats
T1 sequence (P35524 1-994): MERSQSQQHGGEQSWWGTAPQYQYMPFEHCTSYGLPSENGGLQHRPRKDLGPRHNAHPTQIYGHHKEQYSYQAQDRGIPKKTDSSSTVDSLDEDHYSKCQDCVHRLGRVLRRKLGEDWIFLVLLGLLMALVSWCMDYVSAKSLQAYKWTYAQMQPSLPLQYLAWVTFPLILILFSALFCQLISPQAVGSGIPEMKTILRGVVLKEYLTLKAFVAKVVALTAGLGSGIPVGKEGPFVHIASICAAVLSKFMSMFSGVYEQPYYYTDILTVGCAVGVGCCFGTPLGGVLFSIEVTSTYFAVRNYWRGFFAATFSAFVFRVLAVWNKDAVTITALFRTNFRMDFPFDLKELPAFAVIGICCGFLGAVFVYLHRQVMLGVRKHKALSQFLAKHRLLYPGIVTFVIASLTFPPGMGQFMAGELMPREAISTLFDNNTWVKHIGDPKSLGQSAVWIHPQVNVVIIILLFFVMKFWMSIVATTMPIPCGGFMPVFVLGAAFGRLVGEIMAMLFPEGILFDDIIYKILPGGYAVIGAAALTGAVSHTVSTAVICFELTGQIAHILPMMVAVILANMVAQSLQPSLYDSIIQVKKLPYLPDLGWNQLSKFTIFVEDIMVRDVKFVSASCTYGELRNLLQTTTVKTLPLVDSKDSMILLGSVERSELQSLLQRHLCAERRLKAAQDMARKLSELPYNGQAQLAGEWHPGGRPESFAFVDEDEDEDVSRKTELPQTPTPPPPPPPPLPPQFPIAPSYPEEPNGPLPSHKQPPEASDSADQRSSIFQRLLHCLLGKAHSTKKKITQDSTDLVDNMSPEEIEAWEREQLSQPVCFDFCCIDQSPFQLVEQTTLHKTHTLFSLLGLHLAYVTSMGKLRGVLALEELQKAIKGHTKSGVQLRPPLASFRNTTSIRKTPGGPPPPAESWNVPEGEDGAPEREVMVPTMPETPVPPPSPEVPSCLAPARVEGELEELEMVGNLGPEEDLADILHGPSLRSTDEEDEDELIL
Method: Apparent CIC-1 affinity was reported by the concentration of compound at which 50% of the compound's full inhibition of CIC-1 was observed (EC50) (see also WO2019/115777).
Experimentally, Gm was measured in individual fibres of whole rat soleus muscles using a three micro-electrodes technique described in this example and in full detail elsewhere (Riisager et al., Determination of cable parameters in skeletal muscle fibres during repetitive firing of action potentials. Journal of Physiology, 2014, 592, 4417-4429). Briefly, intact rat soleus muscles were dissected out from 12-14 week old Wistar rats and placed in an experimental chamber that was perfused with a standard Krebs Ringer solution containing 122 mM NaCl, 25 mM NaHCO3, 2.8 mM KCl, 1.2 mM KH2PO4, 1.2 mM MgSO4, 1.3 mM CaCl2), 5.0 mM D-glucose. During experiments, the solution was kept at approx. 30° C. and continuously equilibrated with a mixture of 95% O2 and 5% CO2, pH ~7.4. The experimental chamber was placed in Nikon upright microscope that was used to visualize individual muscle fibres and the three electrodes (glass pipettes filled with 2 M potassium citrate). For Gm measurements, the electrodes were inserted into the same fibre with known inter-electrode distances of 0.35-0.5 mm (V1-V2, X1) and 1.1-1.5 mm (V1-V3, X3). The membrane potential of the impaled muscle fibre was recorded by all electrodes. Two of the electrodes were furthermore used to inject 50 ms current pulses of −30 nA. […] The steady state voltage deflection at each distance was divided by the magnitude of current injected (−30 nA) and the resulting transfer resistances were plotted against inter-electrode distance and the data was fitted to a mono-exponential function from which Gm could be calculated using linear cable theory.
To establish a dose response relationship, Gm was first determined in 10 muscle fibres in the absence of compound and then at four increasing compound concentrations with Gm determinations in 5-10 fibres at each concentration. The average Gm values at each concentration were plotted against compound concentration and the data was fitted to sigmoidal function to obtain an EC50 value.

[1] = system: isolated rat soleus muscles; test: Measurement of force in an in vitro model: recovery of contractile force of isolated rat soleus nerve-muscle preparation after tubocurarine; settings: 40 min, read-out: Point increase (%): percentage increase of initial force that was restored; for activation at 10 µM: 10 μM of test compound
Method: The current disclosure relates to compounds that inhibit CIC-1 ion channels and increase muscle excitability and thereby improve muscle function in clinical conditions where muscle activation is failing. Such conditions result in loss of contractile function of skeletal muscle, weakness and excessive fatigue. In this series of experiments the compounds were tested for their ability to restore contractile function of isolated rat muscle when the neuromuscular transmission had been compromised akin to neuromuscular disorders.
Experimentally, soleus muscles from 4-5 wk old rats were isolated with the motor nerve remaining attached. The nerve-muscle preparations were mounted in experimental setups that enabled electrical stimulation of the motor nerve. Stimulation of the motor nerve led to activation of the muscle fibres and ensuing force production that was recorded. The nerve-muscle preparations were also in these experiments incubated in the standard Krebs Ringer (see example 15) and the solution was heated to 30° C. and continuously equilibrated with a mixture of 95% O2 and 5% CO2, pH ~7.4.
After mounting the nerve-muscle preparation in the experimental setup, the contractile function of the muscle was initially assessed under the control conditions. Sub-maximal concentration of tubocurarine (115 nM), an acetylcholine receptor antagonist, was then added to the experimental bath to impose partial inhibition of the ability of the motor nerve to activate the muscle fibres. The experimental condition mimics the failing neuromuscular transmission in a range of neuromuscular disorders. After addition of tubocurarine the contractile force declined over the next 90 minutes to 10-50% of the control force. The test compound was then added to obtain the required compound concentration in the bath and the contractile force recovered was measured. To quantify the ability of the compound to restore force the percentage of the initial force that was restored was determined after 40 mins of compound exposure and the point increase is reported in Tables 3 to 7.

[2] = tubocurarine 115 nM, after 40 mins of compound exposure
[3] = 25 μM of test compound, tubocurarine 115 nM, after 40 mins of compound exposure
[4] = 50 μM of test compound, tubocurarine 115 nM, after 40 mins of compound exposure

Row | pEC50 (CIC-1 ion channel) | Structure (SMILES) | activation at 50 µM [1, 4] | also measured
1 | 5.30 to 6.00 | CN1CCOc2c1cc(F)c(Cl)c2C(=O)O [Compound A-4, 7-Chloro-6-fluoro-4-methyl-3,4-dihydro-2H-1,4-benzoxazine-8-carboxylic acid] | – | activation at 10 µM [1, 2]: 36%
2 | 5.30 to 6.00 | CCN1CCOc2c1cc(Cl)c(F)c2C(=O)O [Compound A-18, 6-Chloro-4-ethyl-7-fluoro-3,4-dihydro-2H-1,4-benzoxazine-8-carboxylic acid] | – | activation at 10 µM [1, 2]: 34%
3 | 6.00 to 6.70 | COc1c(Cl)cc2c(c1C(=O)O)SCCN2C [Compound A-29, 6-Chloro-7-methoxy-4-methyl-3,4-dihydro-2H-1,4-benzothiazine-8-carboxylic acid] | – | activation at 10 µM [1, 2]: 43%
4 | 6.00 to 6.70 | COc1c(Cl)cc2c(c1C(=O)O)OCCN2C [Compound A-2, 6-Chloro-7-methoxy-4-methyl-3,4-dihydro-2H-1,4-benzoxazine-8-carboxylic acid] | – | activation at 10 µM [1, 2]: 32%
5 | 5.30 to 6.00 | COc1c(Cl)cc2c(c1C(=O)O)OCCN2Cc1ccsc1 [Compound A-36, 6-Chloro-7-methoxy-4-[(thiophen-3-yl)methyl]-3,4-dihydro-2H-1,4-benzoxazine-8-carboxylic acid] | – | activation at 25 µM [1, 3]: 36%
6 | 6.00 to 6.70 | CN1CCOc2c1cc(Cl)c(F)c2C(=O)O [Compound A-7, 6-Chloro-7-fluoro-4-methyl-3,4-dihydro-2H-1,4-benzoxazine-8-carboxylic acid] | – | –
7 | 5.30 to 6.00 | CN1CC(C)(C)Oc2c1cc(Cl)c(F)c2C(=O)O [Compound A-9, 6-Chloro-7-fluoro-2,2,4-trimethyl-3,4-dihydro-2H-1,4-benzoxazine-8-carboxylic acid] | – | activation at 10 µM [1, 2]: 37%
8 | 4.82 to 5.30 | CC(C)CCN1CCOc2c1cc(Cl)c(F)c2C(=O)O [Compound A-17, 6-chloro-7-fluoro-4-(3-methylbutyl)-3,4-dihydro-2H-1,4-benzoxazine-8-carboxylic acid] | 29% | –
9 | 4.82 to 5.30 | O=C(O)c1c(F)cc(Cl)c2c1OCCN2 [Compound A-5, 5-Chloro-7-fluoro-3,4-dihydro-2H-1,4-benzoxazine-8-carboxylic acid] | 44% | –
10 | – | COc1c(Cl)cc2c(c1C(=O)O)OCCN2CCCc1nccs1 [Compound A-47, 6-Chloro-7-methoxy-4-[3-(1,3-thiazol-2-yl)propyl]-3,4-dihydro-2H-1,4-benzoxazine-8-carboxylic acid] | – | activation at 100 µM ([1]; 100 μM of test compound, tubocurarine 115 nM, after 40 mins of compound exposure): 14%
11 | – | O=C(O)c1c(F)c(Cl)cc2c1OCCN2CC1CC1 [Compound A-20, 6-Chloro-4-(cyclopropylmethyl)-7-fluoro-3,4-dihydro-2H-1,4-benzoxazine-8-carboxylic acid] | 22% | –
12 | – | O=C(O)c1c(F)c(Cl)cc2c1OCCCN2 [Compound A-15, 7-Chloro-8-fluoro-2,3,4,5-tetrahydro-1,5-benzoxazepine-9-carboxylic acid] | – | activation at 50 µM [1]: 51%
13 | – | CCOc1c(Cl)cc2c(c1C(=O)O)OCCCN2C [Compound A-16, 7-chloro-8-ethoxy-5-methyl-2,3,4,5-tetrahydro-1,5-benzoxazepine-9-carboxylic acid] | 49% | –
14 | – | COc1c(Cl)c(F)c2c(c1C(=O)O)OCCN2C [Compound A-44, 6-Chloro-5-fluoro-7-methoxy-4-methyl-3,4-dihydro-2H-1,4-benzoxazine-8-carboxylic acid] | – | activation at 25 µM [1]: 35%
15 | – | COc1c(Cl)cc2c(c1C(=O)O)OCCN2 [Compound A-14, 6-Chloro-7-methoxy-3,4-dihydro-2H-1,4-benzoxazine-8-carboxylic acid] | – | activation at 25 µM [1, 3]: 28%
16 | – | Cc1ccccc1CN1CCOc2cc(Cl)c(F)c(C(=O)O)c21 [Compound A-62, 7-Chloro-6-fluoro-4-[(o-tolyl)methyl]-3,4-dihydro-2H-1,4-benzoxazine-5-carboxylic acid] | – | activation at 10 µM [1, 2]: 28%
17 | – | CCCN1CCOc2cc(Cl)c(F)c(C(=O)O)c21 [Compound A-56, 7-Chloro-6-fluoro-4-propyl-3,4-dihydro-2H-1,4-benzoxazine-5-carboxylic acid] | – | activation at 35 µM ([1]; 35 μM of test compound, tubocurarine 115 nM, after 40 mins of compound exposure): 48%
18 | – | COc1c(Cl)cc2c(c1C(=O)O)OC1(CCC1)CN2C [Compound A-39, 6-Chloro-7-methoxy-4-methyl-3,4-dihydrospiro[1,4-benzoxazine-2,1′-cyclobutane]-8-carboxylic acid] | 35% | –
19 | – | COc1c(Cl)cc2c(c1C(=O)O)OCCN2CCc1ccccc1 [Compound A-33, 6-Chloro-7-methoxy-4-(2-phenylethyl)-3,4-dihydro-2H-1,4-benzoxazine-8-carboxylic acid] | 25% | –
20 | – | COc1c(Cl)cc2c(c1C(=O)O)OCCN2Cc1cccs1 [Compound A-42, 6-chloro-7-methoxy-4-[(thiophen-2-yl)methyl]-3,4-dihydro-2H-1,4-benzoxazine-8-carboxylic acid] | – | activation at 25 µM [1, 3]: 30%
21 | – | COCC1CN(C)c2cc(Cl)c(OC)c(C(=O)O)c2O1 (centres unmarked) [Compound A-35, 6-Chloro-7-methoxy-2-(methoxymethyl)-4-methyl-3,4-dihydro-2H-1,4-benzoxazine-8-carboxylic acid] | 21% | –
22 | – | COCCN1CCOc2c1cc(Cl)c(F)c2C(=O)O [Compound A-38, 6-Chloro-7-fluoro-4-(2-methoxyethyl)-3,4-dihydro-2H-1,4-benzoxazine-8-carboxylic acid] | 17% | –

Row | Structure (SMILES) | pEC50 (CIC-1 ion channel) | activation at 50 µM [1, 4] | also measured
23 | CCN1CCOc2c1cc(Cl)c(OC)c2C(=O)O [Compound A-28, 6-Chloro-4-ethyl-7-methoxy-3,4-dihydro-2H-1,4-benzoxazine-8-carboxylic acid] | 6.00 to 6.70 | – | activation at 25 µM [1]: 36%
